Earlier results in patent US6172066A, “Dihydropyrimidines and uses thereof” (Synaptic Pharmaceutical Corporation, priority 1997, dated 2001).
Read-outs that look alike come from different tables or passages of the source.

Experiments:
[1] = cited from earlier work
[2] = in addition to its antihypertensive effects; cited from earlier work

SMILES | side effects in BPH treatment ([1]; patients with BPH) | usefulness in treating BPH ([1]; patients with BPH) | side effects of clonidine [2] | side effects in BPH treatment ([1]; in vivo)
CC(COc1ccccc1)N(CCCl)Cc1ccccc1 (stereo not shown) [phenoxybenzamine] | significant side effects such as dizziness and asthenia | useful in relieving the symptoms of BPH |  | 
COc1cc2nc(N3CCN(C(=O)C4CCCO4)CC3)nc(N)c2cc1OC (stereo not shown) [terazosin] | untoward side effects | useful for treating BPH |  | 
Clc1cccc(Cl)c1N=C1NCCN1 [clonidine] |  |  | dry mouth and sedation | 
COc1cc2nc(N3CCN(C(=O)c4ccco4)CC3)nc(N)c2cc1OC [prazosin] |  | useful for treating BPH |  | untoward side effects
